Measurements from the Kinase Knowledgebase extract (Sharma et al. 2016).

What was measured:
[1] = molecular target: EGFR (human) (UniProt P00533); conditions: sn12c
[2] = molecular target: EGFR (human) (UniProt P00533); conditions: hct-116
[3] = molecular target: EGFR (human) (UniProt P00533); conditions: sf-539
[4] = molecular target: EGFR (human) (UniProt P00533); conditions: uacc-62
[5] = molecular target: EGFR (mouse) (UniProt P00533); conditions: baf3
[6] = molecular target: EGFR (human) (UniProt P00533); conditions: hop-62
[7] = molecular target: EGFR (human) (UniProt P00533); conditions: mda-mb-435
[8] = molecular target: EGFR (human) (UniProt P00533); conditions: ccrf-cem
[9] = molecular target: EGFR (human) (UniProt P00533); conditions: du-145
[10] = molecular target: EGFR (human) (UniProt P00533); conditions: ovcar-3
[11] = molecular target: EGFR (human) (UniProt P00533); conditions: mcf-7

Sequence of EGFR (human) (P00533 whole entry, looked up): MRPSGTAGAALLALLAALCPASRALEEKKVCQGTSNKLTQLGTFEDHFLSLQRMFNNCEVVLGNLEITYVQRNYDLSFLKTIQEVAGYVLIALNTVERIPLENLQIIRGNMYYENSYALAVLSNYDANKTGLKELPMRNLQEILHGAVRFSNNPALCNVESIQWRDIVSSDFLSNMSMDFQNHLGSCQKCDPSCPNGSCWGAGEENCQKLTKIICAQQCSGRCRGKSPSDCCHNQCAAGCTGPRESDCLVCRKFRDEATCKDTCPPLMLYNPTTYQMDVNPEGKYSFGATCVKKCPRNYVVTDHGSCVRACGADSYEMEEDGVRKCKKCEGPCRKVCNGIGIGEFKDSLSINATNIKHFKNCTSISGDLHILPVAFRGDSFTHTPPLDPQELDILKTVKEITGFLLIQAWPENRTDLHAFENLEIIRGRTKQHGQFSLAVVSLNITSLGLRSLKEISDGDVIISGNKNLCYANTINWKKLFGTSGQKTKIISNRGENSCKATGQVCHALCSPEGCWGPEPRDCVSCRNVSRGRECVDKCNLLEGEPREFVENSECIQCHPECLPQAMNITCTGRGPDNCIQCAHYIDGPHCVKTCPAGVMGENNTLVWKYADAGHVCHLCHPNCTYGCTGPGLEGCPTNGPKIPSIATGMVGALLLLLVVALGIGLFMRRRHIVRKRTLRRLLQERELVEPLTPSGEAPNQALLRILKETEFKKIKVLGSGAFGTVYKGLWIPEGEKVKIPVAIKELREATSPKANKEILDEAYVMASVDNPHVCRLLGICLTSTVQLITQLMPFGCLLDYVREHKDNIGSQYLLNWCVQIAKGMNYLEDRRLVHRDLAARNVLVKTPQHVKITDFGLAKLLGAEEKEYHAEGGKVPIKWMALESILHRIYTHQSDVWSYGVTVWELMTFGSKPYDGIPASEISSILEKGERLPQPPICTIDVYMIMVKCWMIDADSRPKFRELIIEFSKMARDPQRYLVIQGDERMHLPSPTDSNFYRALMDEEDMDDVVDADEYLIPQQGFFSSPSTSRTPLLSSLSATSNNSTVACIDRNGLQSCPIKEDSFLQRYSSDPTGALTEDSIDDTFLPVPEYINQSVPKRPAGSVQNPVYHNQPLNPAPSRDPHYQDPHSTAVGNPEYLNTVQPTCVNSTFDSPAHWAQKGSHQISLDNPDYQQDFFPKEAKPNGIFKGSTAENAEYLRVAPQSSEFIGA

Structure (SMILES)	IC50 [1]	IC50 [2]	IC50 [3]	IC50 [4]	IC50 [5]	IC50 [6]	IC50 [7]	IC50 [8]	IC50 [9]	IC50 [10]	IC50 [11]
O=C(NCc1ccccc1)c1ccc(NCc2cc(O)ccc2O)cc1	9.7 µM	10 µM	9.7 µM	12 µM	> 100 µM	20 µM	12 µM	2.7 µM	15 µM	6.8 µM	–
O=C(NCCc1ccccc1)c1cc(NCc2cc(O)ccc2O)ccc1O	18 µM	18 µM	17 µM	14 µM	–	20 µM	19 µM	2.7 µM	16 µM	7.7 µM	–
O=C(NCCCc1ccccc1)c1cc(NCc2cc(O)ccc2O)ccc1O	15 µM	24 µM	16 µM	14 µM	–	22 µM	18 µM	2.4 µM	8.4 µM	6.5 µM	–
CCCCCCCCCCCCNC(=O)c1cc(NCc2cc(O)ccc2O)ccc1O	2.6 µM	2.1 µM	20 µM	3.2 µM	–	3.8 µM	3.2 µM	0.34 µM	11 µM	1.9 µM	–
O=C(NCCCc1ccccc1)c1ccc(NCc2cc(O)ccc2O)cc1	3.2 µM	6.4 µM	3.4 µM	7.9 µM	–	16 µM	–	0.83 µM	13 µM	–	–
O=C(NCCc1ccccc1)c1ccc(NCc2cc(O)ccc2O)cc1	7.4 µM	7.4 µM	8.5 µM	9.4 µM	> 200 µM	13 µM	–	0.59 µM	14 µM	2.7 µM	–
O=C(NCc1ccccc1)c1cc(NCc2cc(O)ccc2O)ccc1O	12 µM	–	21 µM	15 µM	–	23 µM	30 µM	–	16 µM	21 µM	–
O=C(NCCc1ccccc1)c1cccc(NCc2cc(O)ccc2O)c1	13 µM	16 µM	15 µM	13 µM	–	3.8 µM	15 µM	4.4 µM	17 µM	2.8 µM	–
CC(C)CCCC(C)[C@H]1CCC2C3CCC4C[C@@H](NC(=O)c5cc(NCc6cc(O)ccc6O)ccc5O)CC[C@]4(C)C3CC[C@@]21C (stereo partly drawn)	–	–	–	–	–	–	–	–	–	–	> 50 µM
O=C(NCCc1ccc(Cl)cc1)c1cc(NCc2cc(O)ccc2O)ccc1O	9.8 µM	15 µM	8.4 µM	–	–	17 µM	20 µM	1.6 µM	16 µM	5.9 µM	–
O=C(NCCc1ccccn1)c1cc(NCc2cc(O)ccc2O)ccc1O	19 µM	17 µM	29 µM	17 µM	–	20 µM	13 µM	1 µM	17 µM	17 µM	–
O=C(NCCN1CCOCC1)c1cc(NCc2cc(O)ccc2O)ccc1O	22 µM	20 µM	19 µM	17 µM	> 50 µM	–	13 µM	1.8 µM	17 µM	87 µM	–
COc1ccc(CCNC(=O)c2cc(NCc3cc(O)ccc3O)ccc2O)cc1	72 µM	23 µM	16 µM	–	> 100 µM	12 µM	16 µM	3.2 µM	21 µM	5.5 µM	–
CCCCCCNC(=O)c1cc(NCc2cc(O)ccc2O)ccc1O	6.1 µM	17 µM	2.3 µM	12 µM	–	19 µM	15 µM	0.56 µM	15 µM	4 µM	–
O=C(NC1CCc2ccccc2C1)c1cc(NCc2cc(O)ccc2O)ccc1O (stereo not drawn)	18 µM	16 µM	2.7 µM	14 µM	–	17 µM	9.2 µM	1.4 µM	17 µM	–	–
O=C(NCCc1ccc(Br)cc1)c1cc(NCc2cc(O)ccc2O)ccc1O	–	7.6 µM	15.8 µM	8.6 µM	–	18 µM	10 µM	–	16 µM	–	–
O=C(NCCc1ccc(O)cc1)c1cc(NCc2cc(O)ccc2O)ccc1O	19 µM	–	2.5 µM	18 µM	–	2.5 µM	23 µM	–	17 µM	62 µM	–
O=C(NCCc1ccc(F)cc1)c1cc(NCc2cc(O)ccc2O)ccc1O	7.7 µM	9.2 µM	9.2 µM	7.8 µM	–	–	13 µM	0.29 µM	18 µM	11 µM	–
